In patent US12692223B2, “Phenyl-sulfamoyl-benzoic acid derivatives as ERAP1-modulators” (GREY WOLF THERAPEUTICS LIMITED, priority 2021, dated 2026):

Molecular target: T1, ERAP1 (Homo sapiens, UniProt Q9NZ08)
T1 construct: Purified ERAP1(37-941)-10His (ERAP1)
Assay: ERAP1 mediated hydrolysis of an amide substrate measured in a biochemical system (10-mer inhibition assay)
Conditions: purified ERAP1(37-941)-10His; 10-mer substrate; 23° C. for 1 h; excitation 279 nm, emission 355 nm; read-out: IC50 vs Decapeptide WRVYEKC(Dnp)ALK-acid (where Dnp is Dinitrophenyl maleimide) (10-mer)
Procedure, shortened: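 Purified ERAP1(37-941)-10His in 25 mM Bis-tris propane, 0.05% HPMC, pH 7.75, with compound, then 100 μM 10-mer WRVYEKC(Dnp)ALK or 240 μM L-AMC added (stock concentrations before 1:1 mixing), 1 h at 23 °C. Fluorescence read at ex 279/em 355 nm (10-mer) or ex 365/em 442 nm (L-AMC); IC50 from 4-parameter fit.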

T1 sequence (Q9NZ08 37-941): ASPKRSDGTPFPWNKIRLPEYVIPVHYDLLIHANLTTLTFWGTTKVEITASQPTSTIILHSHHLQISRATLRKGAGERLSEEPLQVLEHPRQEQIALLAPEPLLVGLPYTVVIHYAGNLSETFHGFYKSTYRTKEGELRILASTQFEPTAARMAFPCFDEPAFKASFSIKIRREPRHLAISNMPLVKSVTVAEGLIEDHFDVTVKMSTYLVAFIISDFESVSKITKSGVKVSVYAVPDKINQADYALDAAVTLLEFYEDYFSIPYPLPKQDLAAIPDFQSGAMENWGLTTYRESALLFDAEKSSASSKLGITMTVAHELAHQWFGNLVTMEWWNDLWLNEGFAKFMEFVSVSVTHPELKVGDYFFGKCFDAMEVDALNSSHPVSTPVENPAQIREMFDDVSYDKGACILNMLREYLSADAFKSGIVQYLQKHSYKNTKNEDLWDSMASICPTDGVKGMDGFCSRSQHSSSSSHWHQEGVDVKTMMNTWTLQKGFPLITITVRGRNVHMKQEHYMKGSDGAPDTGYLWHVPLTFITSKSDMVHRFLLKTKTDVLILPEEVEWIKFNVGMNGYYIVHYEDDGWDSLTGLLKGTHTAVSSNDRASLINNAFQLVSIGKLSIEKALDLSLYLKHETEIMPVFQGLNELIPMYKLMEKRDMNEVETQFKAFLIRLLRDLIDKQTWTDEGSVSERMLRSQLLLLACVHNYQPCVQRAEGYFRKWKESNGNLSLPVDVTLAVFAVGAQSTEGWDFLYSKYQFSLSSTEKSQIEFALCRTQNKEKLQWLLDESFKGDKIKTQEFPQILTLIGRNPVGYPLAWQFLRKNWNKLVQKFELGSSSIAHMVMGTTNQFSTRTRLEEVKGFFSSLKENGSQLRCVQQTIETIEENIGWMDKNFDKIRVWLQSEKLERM

IC50 [nM] | Compound
> 5 | N#Cc1cc(NS(=O)(=O)c2c(C3CC3)ccc(C(=O)O)c2F)c(OC2CCCC2)cc1Cl [Example 67, 3-(N-(4-chloro-5-cyano-2-(cyclopentyloxy)phenyl)sulfamoyl)-4-cyclopropyl-2-fluorobenzoic acid]
< 1 | N#Cc1cc(NS(=O)(=O)c2cc(C(=O)O)ccc2C2CC2)c(OC2CCCC23CC3)cc1Cl (centres unmarked) [Example 69, 3-(N-(4-chloro-5-cyano-2-(spiro[2.4]heptan-4-yloxy)phenyl)sulfamoyl)-4-cyclopropylbenzoic acid]
< 1 | C[C@H](Oc1cc(Cl)c(C#N)cc1NS(=O)(=O)c1cc(C(=O)O)ccc1C1CC1)C1CCC1 [Example 70, (S)-3-(N-(4-chloro-5-cyano-2-(1-cyclobutylethoxy)phenyl)sulfamoyl)-4-cyclopropylbenzoic acid]
< 1 | N#Cc1cc(NS(=O)(=O)c2cc(C(=O)O)ccc2C2CC2)c(O[C@@H]2CCC[C@@H]2F)cc1Cl [Example 73, 3-(N-(4-chloro-5-cyano-2-(((1R,2S)-2-fluorocyclopentyl)oxy)phenyl)sulfamoyl)-4-cyclopropylbenzoic acid]
1 to 5 | CC1(C)CC(COc2cc(Cl)c(C#N)cc2NS(=O)(=O)c2cc(C(=O)O)ccc2C2CC2)C1 [Example 75, 3-(N-(4-chloro-5-cyano-2-((3,3-dimethylcyclobutyl)methoxy)phenyl)sulfamoyl)-4-cyclopropylbenzoic acid]
< 1 | N#Cc1cc(NS(=O)(=O)c2cc(C(=O)O)ccc2C2CC2)c(OCC23CC(C2)C3)cc1Cl [Example 76, 3-(N-(2-(bicyclo[1.1.1]pentan-1-ylmethoxy)− 4-chloro-5-cyanophenyl)sulfamoyl)-4-cyclopropylbenzoic acid]
< 1 | N#Cc1cc(NS(=O)(=O)c2cc(C(=O)O)ccc2C2CC2)c(OC2CCC23CCC3)cc1Cl (centres unmarked) [Example 77, 3-(N-(4-chloro-5-cyano-2-(spiro[3.3]heptan-1-yloxy)phenyl)sulfamoyl)-4-cyclopropylbenzoic acid]
< 1 | C[C@@H](Oc1cc(Cl)c(C#N)cc1NS(=O)(=O)c1cc(C(=O)O)ccc1C1CC1)C1CCC1 [Example 78, (R)-3-(N-(4-chloro-5-cyano-2-(1-cyclobutylethoxy)phenyl)sulfamoyl)-4-cyclopropylbenzoic acid]
< 1 | N#Cc1cc(NS(=O)(=O)c2cc(C(=O)O)ccc2C2CC2)c(OCC23C4C5C6C4C2C6C53)cc1Cl (centres unmarked) [Example 79, 3-(N-(4-chloro-2-(cuban-1-ylmethoxy)-5-cyanophenyl)sulfamoyl)-4-cyclopropylbenzoic acid]
< 1 | CC1(Oc2cc(Cl)c(C#N)cc2NS(=O)(=O)c2cc(C(=O)O)ccc2C2CC2)CCCC1 [Example 81, 3-(N-(4-chloro-5-cyano-2-((1-methylcyclopentyl)oxy)phenyl)sulfamoyl)-4-cyclopropylbenzoic acid]
< 1 | N#Cc1cc(NS(=O)(=O)c2cc(C(=O)O)ccc2C2CC2)c(OCC2(C#N)CCC2)cc1Cl [Example 82, 3-(N-(4-chloro-5-cyano-2-((1-cyanocyclobutyl)methoxy)phenyl)sulfamoyl)-4-cyclopropylbenzoic acid]

Compound | IC50 [nM]
CO[C@H]1C[C@@H](Oc2cc(Cl)c(C#N)cc2NS(=O)(=O)c2cc(C(=O)O)ccc2C2CC2)C1 [Example 68, 3-(N-(4-chloro-5-cyano-2-(cis-3-methoxycyclobutoxy)phenyl)sulfamoyl)-4-cyclopropylbenzoic acid] | 1 to 5
N#Cc1cc(NS(=O)(=O)c2cc(C(=O)O)ccc2C2CC2)c(O[C@H]2C[C@@H](F)C2)cc1Cl [Example 71, 3-(N-(4-chloro-5-cyano-2-(cis-3-fluorocyclobutoxy)phenyl)sulfamoyl)-4-cyclopropylbenzoic acid] | < 1
CC1(C)CCC1Oc1cc(Cl)c(C#N)cc1NS(=O)(=O)c1cc(C(=O)O)ccc1C1CC1 (centres unmarked) [Example 80, 3-(N-(4-chloro-5-cyano-2-(2,2-dimethylcyclobutoxy)phenyl)sulfamoyl)-4-cyclopropylbenzoic acid] | < 1
